Data on 10 compounds can be found in US4483794A, “Analogs of neurohypophysial hormones” (Ceskoslovenska akademie ved, priority 1983, dated 1984).

Structures are written as SMILES. *1 amine or outer side, *2 acyl side, *3 side chain or, on linkers, in order; H or OH if unused. Where a SMILES comes first, the peptide text is derived from it. Bridges are numbered along the chain shown (N, C = ends). [ ]: non-standard residue; d: D form. dPhe(4-Et) = CCc1ccc(C[C@@H](N)C(=O)O)cc1; dPhe(4-Me) = Cc1ccc(C[C@@H](N)C(=O)O)cc1; hCys = N[C@@H](CCS)C(=O)O; X1 = O=C(CC[*:2])[*:1]

One experiment concerns the target T1, isolated rat uterus (Rattus norvegicus, UniProt P70536).
T1 construct: isolated rat uterus; from tissue; host or cells: isolated rat uterus
T1 sequence (P70536 1-388): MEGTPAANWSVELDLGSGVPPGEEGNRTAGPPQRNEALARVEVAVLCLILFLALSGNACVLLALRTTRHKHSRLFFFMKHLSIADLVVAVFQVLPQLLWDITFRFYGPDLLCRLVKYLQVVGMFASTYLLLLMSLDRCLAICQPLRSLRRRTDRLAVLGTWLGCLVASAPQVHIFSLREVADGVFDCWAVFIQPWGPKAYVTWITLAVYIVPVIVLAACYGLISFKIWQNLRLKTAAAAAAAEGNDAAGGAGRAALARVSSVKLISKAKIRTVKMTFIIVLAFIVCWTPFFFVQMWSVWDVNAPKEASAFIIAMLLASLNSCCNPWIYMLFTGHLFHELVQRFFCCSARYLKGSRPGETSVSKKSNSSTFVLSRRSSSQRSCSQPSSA
Put plainly: pA2 values as tested with an isolated rat uterus (oxytocin as agonist). The experiment is classed as cell-based. The settings on record: negative decadic logarithm of an inhibitory constant. From the text:
Each of the above-identified analogs evidenced strong inhibitory effects. Table I, set forth below, set forth numerical values of the biological activity of these analogs wherein pA2 represents the negative decadic logarithm of an inhibitory constant in accordance with the equation [formula] wherein B is the concentration of the inhibitor in moles per liter, A50 is the concentration of an agonistic compound (oxytocin) which results in 50% of the maximum effect, and A50B is the concentration of an agonistic compound yielding 50% of the maximum effect in the presence of an inhibitor of concentration B (Eggena P., Schwartz I. L., and Walter R.: J. Gen. Physiol. 52, 465 (1968).
pA2 values as tested with an isolated rat uterus

Experiment [1] deals with T2, biological effect of vasopressin (blood pressure) (Rattus norvegicus, UniProt P30560).
T2 construct: blood pressure in a despinalized rat; from tissue; host or cells: despinalized rat in vivo (vasculature)
Put plainly: suppression of the biological effect of vasopressin, i.e. of blood pressure in a despinalized rat. The following applies: in vivo, blood volume 6.7 ml/100g of rat weight assumed. The procedure:
^(a) the negative decadic logarithm of the analog concentration which
leads to suppression of the biological effect of vasopressin (i.e. of
blood pressure in a despinalized rat) to 50% of the original response; th
blood volume of rat (6.7 ml/100g of rat weight) is assumed in the in vivo
test (Nestor J. J., Ferger M. F., du Vigneaud V.: J. Med. Chem. 18, 284

In experiment [2] the test system is uterotonic activity of oxytocin. Put plainly: inhibitory effect toward the uterotonic activity of oxytocin in the in vivo test with a uterus. The following applies: compared with the equipotential dose of [2D-p-ethylphenylalanine] oxytocin. The text has this:
uterotonic activity of oxytocin in the in vivo test with a uterus as
compared with the equipotential dose of the compound ([
2D-p-ethylphenylalanine] oxytocin).

Experiment [3] has as its system uterotonic and pressor activity of natural hormones. Put plainly: inhibitory effects of the analogs toward natural hormones (general statements). The settings on record: in words.

T2 sequence (P30560 whole entry): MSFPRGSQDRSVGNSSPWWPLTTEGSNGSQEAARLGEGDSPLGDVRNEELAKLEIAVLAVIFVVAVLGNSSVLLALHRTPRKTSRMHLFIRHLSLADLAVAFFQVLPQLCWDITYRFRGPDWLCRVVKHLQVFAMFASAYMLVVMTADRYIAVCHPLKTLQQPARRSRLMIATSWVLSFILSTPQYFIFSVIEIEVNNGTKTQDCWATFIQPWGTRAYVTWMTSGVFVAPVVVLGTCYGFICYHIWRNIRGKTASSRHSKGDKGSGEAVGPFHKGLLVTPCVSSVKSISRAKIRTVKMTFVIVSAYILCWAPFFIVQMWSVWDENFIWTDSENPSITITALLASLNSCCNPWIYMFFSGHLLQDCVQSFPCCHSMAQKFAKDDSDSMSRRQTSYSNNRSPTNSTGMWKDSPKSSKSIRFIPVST

`CC[C@H](C)[C@@H]1NC(=O)[C@@H](Cc2ccccc2)NC(=O)CCSCC[C@@H](C(=O)N2CCC[C@H]2C(=O)N[C@@H](CC(C)C)C(=O)NCC(N)=O)NC(=O)[C@H](CC(N)=O)NC(=O)[C@H](CCC(N)=O)NC1=O` [Ia, [2-D-Phenylalanine]deamino-6-carba-oxytocin] (HELM PEPTIDE1{[dF].I.Q.N.[O=C([C@H](CCS[*:3])N[*:1])[*:2]].P.L.G.[am]}|CHEM1{[O=C(CC[*:2])[*:1]]}$PEPTIDE1,CHEM1,1:R1-1:R1|PEPTIDE1,CHEM1,5:R3-1:R2$$$V2.0): the Kb at isolated rat uterus was 5.5 nM.
In the case of `CCOc1ccc(C[C@H]2NC(=O)CCSCC[C@@H](C(=O)N3CCC[C@H]3C(=O)N[C@@H](CC(C)C)C(=O)NCC(N)=O)NC(=O)[C@H](CC(N)=O)NC(=O)[C@H](CCC(N)=O)NC(=O)[C@H]([C@@H](C)CC)NC2=O)cc1` [Ib, [2-D-o-Ethyltyrosine]deamino-6-carba-oxytocin] ([dY](Et)IQN[hCys]PLG-NH2; linker N-5 via X1), at isolated rat uterus, the Kb is 28.8 nM.
With `CC[C@H](C)[C@@H]1NC(=O)[C@@H](Cc2ccc(C)cc2)NC(=O)CCSCC[C@@H](C(=O)N2CCC[C@H]2C(=O)N[C@@H](CC(C)C)C(=O)NCC(N)=O)NC(=O)[C@H](CC(N)=O)NC(=O)[C@H](CCC(N)=O)NC1=O` [Ic, [2-D-p-Methylphenylalanine]deamino-6-carba-oxytocin] ([dPhe(4-Me)]IQN[hCys]PLG-NH2; linker N-5 via X1), at isolated rat uterus, the Kb is 1.86 nM.
`CCc1ccc(C[C@H]2NC(=O)CCSCC[C@@H](C(=O)N3CCC[C@H]3C(=O)N[C@@H](CC(C)C)C(=O)NCC(N)=O)NC(=O)[C@H](CC(N)=O)NC(=O)[C@H](CCC(N)=O)NC(=O)[C@H]([C@@H](C)CC)NC2=O)cc1` [Id, [2-D-p-Ethylphenylalanine]deamino-6-carba-oxytocin] ([dPhe(4-Et)]IQN[hCys]PLG-NH2; linker N-5 via X1): the Kb at isolated rat uterus is 1.86 nM.
A word on the pA2: it is a measure of antagonist potency on a negative log scale. On isolated rat uterus, `CCc1ccc(C[C@H]2NC(=O)CCSSC[C@@H](C(=O)N3CCC[C@H]3C(=O)N[C@@H](CC(C)C)C(=O)NCC(N)=O)NC(=O)[C@H](CC(N)=O)NC(=O)[C@H](CCC(N)=O)NC(=O)[C@H]([C@@H](C)CC)NC2=O)cc1` [Ie, [2-D-p-Ethylphenylalanine]deamino-oxytocin] (HELM PEPTIDE1{[O=C(CCS[*:3])[*:2]].[CCc1ccc(C[C@@H](N[*:1])C(=O)[*:2])cc1].I.Q.N.C.P.L.G.[am]}$PEPTIDE1,PEPTIDE1,1:R3-6:R3$$$V2.0) registered a pA2 of 8.06.
Consider `CCc1ccc(C[C@H]2NC(=O)[C@@H](N)CSSC[C@@H](C(=O)N3CCC[C@H]3C(=O)N[C@@H](CC(C)C)C(=O)NCC(N)=O)NC(=O)[C@H](CC(N)=O)NC(=O)[C@H](CCC(N)=O)NC(=O)[C@H]([C@@H](C)CC)NC2=O)cc1` [If, [2-D-p-Ethylphenylalanine]oxytocin] (HELM PEPTIDE1{C.[CCc1ccc(C[C@@H](N[*:1])C(=O)[*:2])cc1].I.Q.N.C.P.L.G.[am]}$PEPTIDE1,PEPTIDE1,1:R3-6:R3$$$V2.0), for which, on isolated rat uterus, the Kb was 7.08 nM.
In the case of `CCc1ccc(C[C@H]2NC(=O)[C@@H](N)C(C)(C)SSC[C@@H](C(=O)N3CCC[C@H]3C(=O)N[C@@H](CC(C)C)C(=O)NCC(N)=O)NC(=O)[C@H](CC(N)=O)NC(=O)[C@H](CCC(N)=O)NC(=O)[C@H]([C@@H](C)CC)NC2=O)cc1` [Ig, [1-Penicilamine, 2-D-p-ethylphenylalanine]oxytocin] (HELM PEPTIDE1{[Pen].[CCc1ccc(C[C@@H](N[*:1])C(=O)[*:2])cc1].I.Q.N.C.P.L.G.[am]}$PEPTIDE1,PEPTIDE1,1:R3-6:R3$$$V2.0), the Kb at isolated rat uterus is 8.13 nM.
Consider `CCc1ccc(C[C@H]2NC(=O)[C@@H](N)CSSC[C@@H](C(=O)N3CCC[C@H]3C(=O)N[C@@H](CCCCN)C(=O)NCC(N)=O)NC(=O)[C@H](CC(N)=O)NC(=O)[C@H](CCC(N)=O)NC(=O)[C@H](Cc3ccccc3)NC2=O)cc1` [Ih, [2-D-p-Ethylphenylalanine, 8-lysine]vasopressin] (HELM PEPTIDE1{C.[CCc1ccc(C[C@@H](N[*:1])C(=O)[*:2])cc1].F.Q.N.C.P.K.G.[am]}$PEPTIDE1,PEPTIDE1,1:R3-6:R3$$$V2.0), for which the “pA2 (negative decadic logarithm of the analog concentration which leads to suppression of the biological effect of vasopressin to 50% of the original response)” value in experiment [1] amounted to 7.05.
As to `CCc1ccc(C[C@H]2NC(=O)[C@@H](NC(=O)CNC(=O)CNC(=O)CN)CSSC[C@@H](C(=O)N3CCC[C@H]3C(=O)N[C@@H](CC(C)C)C(=O)NCC(N)=O)NC(=O)[C@H](CC(N)=O)NC(=O)[C@H](CCC(N)=O)NC(=O)[C@H]([C@@H](C)CC)NC2=O)cc1` [Ii, N^δ -Glycyl-glycyl-glycyl[2-D-p-ethylphenylalanine]oxytocin] (HELM PEPTIDE1{G.G.G.C.[CCc1ccc(C[C@@H](N[*:1])C(=O)[*:2])cc1].I.Q.N.C.P.L.G.[am]}$PEPTIDE1,PEPTIDE1,4:R3-9:R3$$$V2.0), the Kb at isolated rat uterus was 724 nM. For the same compound, the “inhibitory effect toward the uterotonic activity of oxytocin, duration” value in experiment [2] is recorded as “prolonged inhibitory effect”.
For the compound `CC[C@H](C)[C@@H]1NC(=O)[C@@H](Cc2ccc(C)cc2)NC(=O)CCSCC[C@@H](C(=O)N2CCC[C@H]2C(=O)N[C@@H](CC(C)C)C(=O)O)NC(=O)[C@H](CC(N)=O)NC(=O)[C@H](CCC(N)=O)NC1=O` [Ij, [2-D-p-methylphenylalanine, 9-desglycinamide]deamino-6-carbaoxytocin] ([dPhe(4-Me)]IQN[hCys]PL-OH; linker N-5 via X1), at isolated rat uterus, the Kb is 1.58 nM. The inhibitory effect result in experiment [3] is “retained”.
